Assays:
Format in all cases: in vivo
[1] = system: wheat (Triticum aestivum); assay: Test A postemergence, wheat; details: 10 days
Description: (§1) Seeds of plant species selected from barnyardgrass (Echinochloa crus-galli), blackgrass (Alopecurus myosuroides), corn (Zea mays), foxtail, giant (giant foxtail, Setaria faberi), foxtail, green (green foxtail, Setaria viridis), goosegrass (Eleusine indica), kochia (Bassia scoparia), oat, wild (wild oat, Avena fatua), palmer amaranth (pigweed, palmer, Amaranthus palmeri), redroot pigweed (Amaranthus retroflexus), ragweed (common ragweed, Ambrosia artemisiifolia), ryegrass, Italian (Italian ryegrass, Lolium multiflorum), and soybean (Glycine max) were planted into a blend of loam soil and sand and treated preemergence with a directed soil spray using test chemicals formulated in a non-phytotoxic solvent mixture which included a surfactant.
(§2) At the same time, plants selected from these crop and weed species and also wheat (Triticum aestivum), galium (catchweed bedstraw, Galium aparine) and horseweed (Erigeron canadensis) were planted in pots containing the same blend of loam soil and sand and treated with postemergence applications of test chemicals formulated in the same manner. Plants ranged in height from 2 to 10 cm and were in the one- to two-leaf stage for the postemergence treatment. Treated plants and untreated controls were maintained in a greenhouse for 10 days, after which time all treated plants were compared to untreated controls and visually evaluated for injury. Plant response ratings, summarized in Table A, are based on a 0 to 100 scale where 0 is no effect and 100 is complete control. A dash (-) response means no test result.

[2] = system: ducksalad (Heteranthera limosa); assay: Test B flooded paddy test, ducksalad; details: 250 g ai/ha, Flood; visually evaluated after 10 to 14 days
Experimental: (§3) Plant species in the flooded paddy test selected from barnyardgrass (Echinochloa crus-galli), ducksalad (Heteranthera limosa), rice (Oryza sativa), and sedge, umbrella (small-flower umbrella sedge, Cyperus difformis) were grown to the 2-leaf stage for testing. At time of treatment, test pots were flooded to 3 cm above the soil surface, treated by application of test compounds directly to the paddy water, and then maintained at that water depth for the duration of the test. Treated plants and controls were maintained in a greenhouse for 10 to 14 days, after which time all species were compared to controls and visually evaluated. Plant response ratings, summarized in Table B, are based on a scale of 0 to 100 where 0 is no effect and 100 is complete control. A dash (-) response means no test result.

corn (Zea mays) = assay: Test A postemergence, corn; details: 10 days
Description: as §1, §2

[3] = system: redroot pigweed (Amaranthus retroflexus); assay: Test A preemergence, redroot pigweed; details: 0 to 100 scale, 10 days
Description: as §1, §2

rice (Oryza sativa) = assay: Test B flooded paddy test, rice; details: 250 g ai/ha, Flood; visually evaluated after 10 to 14 days
Experimental: as §3

[4] = system: sedge, umbrella (small-flower umbrella sedge, Cyperus difformis); assay: Test B flooded paddy test, sedge, umbrella; details: 250 g ai/ha, Flood; visually evaluated after 10 to 14 days
Experimental: as §3

[5] = system: galium (catchweed bedstraw, Galium aparine); assay: Test A postemergence, galium; details: 10 days
Description: as §1, §2

[6] = system: foxtail, green (green foxtail, Setaria viridis); assay: Test A preemergence, foxtail, green; details: 0 to 100 scale, 10 days
Description: as §1, §2

[7] = system: ragweed (common ragweed, Ambrosia artemisiifolia); assay: Test A postemergence, ragweed; details: 10 days
Description: as §1, §2

[8] = system: foxtail, green (green foxtail, Setaria viridis); assay: Test A postemergence, foxtail, green; details: 10 days
Description: as §1, §2

[9] = system: ryegrass, Italian (Italian ryegrass, Lolium multiflorum); assay: Test A preemergence, ryegrass, Italian; details: 0 to 100 scale, 10 days
Description: as §1, §2

[10] = system: barnyardgrass (Echinochloa crus-galli); assay: Test B flooded paddy test, barnyardgrass; details: 250 g ai/ha, Flood; visually evaluated after 10 to 14 days
Experimental: as §3

[11] = system: barnyardgrass (Echinochloa crus-galli); assay: Test A preemergence, barnyardgrass; details: 10 days
Description: as §1, §2

kochia (Bassia scoparia) [12] = assay: Test A postemergence, kochia; details: 10 days
Description: as §1, §2

[13] = system: ryegrass, Italian (Italian ryegrass, Lolium multiflorum); assay: Test A postemergence, ryegrass, Italian; details: 10 days
Description: as §1, §2

[14] = system: redroot pigweed (Amaranthus retroflexus); assay: Test A postemergence, redroot pigweed; details: 10 days
Description: as §1, §2

[15] = system: ragweed (common ragweed, Ambrosia artemisiifolia); assay: Test A preemergence, ragweed; details: 0 to 100 scale, 10 days
Description: as §1, §2

[16] = system: blackgrass (Alopecurus myosuroides); assay: Test A postemergence, blackgrass; details: 10 days
Description: as §1, §2

[17] = system: barnyardgrass (Echinochloa crus-galli); assay: Test A postemergence, barnyardgrass; details: 10 days
Description: as §1, §2

kochia (Bassia scoparia) [18] = assay: Test A preemergence, kochia; details: 0 to 100 scale, 10 days
Description: as §1, §2

[19] = 31 g ai/ha, postemergence, 0 to 100 scale (0 no effect, 100 complete control)
[20] = Postemergence, 125 g ai/ha, 0 to 100 scale
[21] = Postemergence, 31 g ai/ha, 0 to 100 scale
[22] = 125 g ai/ha, 0 to 100 scale (0 no effect, 100 complete control)

Row | SMILES | Plant response rating, Wheat [1, 19] | Plant response rating, Wheat [1, 20] | Plant response rating, Ducksalad (0 to 100 scale where 0 is no effect and 100 is complete control) [2] | Plant response rating, Corn (corn (Zea mays); [20]) | Plant response rating, Pigweed, Redroot ([3]; 31 g ai/ha) | Plant response rating, Pigweed, Redroot ([3]; 125 g ai/ha) | Plant response rating, Rice (0 to 100 scale where 0 is no effect and 100 is complete control) (rice (Oryza sativa)) | Plant response rating, Sedge, Umbrella (0 to 100 scale where 0 is no effect and 100 is complete control) [4] | Plant response rating, Galium [5, 19] | Plant response rating, Galium [5, 20] | Plant response rating, Foxtail, Green ([6]; 31 g ai/ha) | Plant response rating, Foxtail, Green ([6]; 125 g ai/ha) | Plant response rating, Ragweed [7, 19] | Plant response rating, Ragweed [7, 20] | Plant response rating, Foxtail, Green [8, 19] | Plant response rating, Foxtail, Green [8, 20] | Plant response rating, Ryegrass, Italian ([9]; 31 g ai/ha) | Plant response rating, Ryegrass, Italian ([9]; 125 g ai/ha) | Plant response rating, Barnyardgrass (0 to 100 scale where 0 is no effect and 100 is complete control) [10] | Plant response rating, Barnyardgrass ([11]; 31 g ai/ha, 0 to 100 scale) | also measured
1 | Cc1ccc2ccc(F)cc2c1-c1c(OCOC(=O)C(C)(C)C)c(Cl)nn(C)c1=O [Compound 4] | 40 | 70 | 95 | 0 | 100 | 100 | 35 | 95 | 70 | 100 | 70 | 100 | 50 | 100 | 40 | 80 | 90 | 100 | 75 | 10 | Plant response rating, Corn (corn (Zea mays); [21]): 0; Plant response rating, Barnyardgrass [11, 22]: 100; Plant response rating, Kochia (kochia (Bassia scoparia) [12]; [19]): 10; Plant response rating, Kochia (kochia (Bassia scoparia) [12]; [20]): 40; Plant response rating, Ryegrass, Italian [13, 19]: 50; Plant response rating, Ryegrass, Italian [13, 20]: 90; Plant response rating, Pigweed, Redroot [14, 19]: 70; Plant response rating, Pigweed, Redroot [14, 20]: 100; Plant response rating, Ragweed ([15]; 31 g ai/ha): 100; Plant response rating, Ragweed ([15]; 125 g ai/ha): 100; Plant response rating, Blackgrass [16, 21]: 20; Plant response rating, Blackgrass [16, 20]: 70; Plant response rating, Barnyardgrass [17, 21]: 20; Plant response rating, Barnyardgrass [17, 20]: 60; Plant response rating, Kochia (kochia (Bassia scoparia) [18]; 31 g ai/ha): 20; Plant response rating, Kochia (kochia (Bassia scoparia) [18]; 125 g ai/ha): 100
2 | Cc1ccc2ccccc2c1-c1c(OCOC(=O)C(C)C)c(Cl)nn(C)c1=O [Compound 6] | 0 | 10 | 70 | 0 | 90 | 100 | 0 | 75 | 70 | 90 | 0 | 50 | 70 | 80 | 0 | 60 | 20 | 70 | 10 | 0 | Plant response rating, Corn (corn (Zea mays); [21]): 0; Plant response rating, Barnyardgrass [11, 22]: 0; Plant response rating, Kochia (kochia (Bassia scoparia) [12]; [19]): 10; Plant response rating, Kochia (kochia (Bassia scoparia) [12]; [20]): 60; Plant response rating, Ryegrass, Italian [13, 19]: 50; Plant response rating, Ryegrass, Italian [13, 20]: 70; Plant response rating, Pigweed, Redroot [14, 19]: 60; Plant response rating, Pigweed, Redroot [14, 20]: 100; Plant response rating, Ragweed ([15]; 31 g ai/ha): 10; Plant response rating, Ragweed ([15]; 125 g ai/ha): 80; Plant response rating, Blackgrass [16, 21]: 0; Plant response rating, Blackgrass [16, 20]: 40; Plant response rating, Barnyardgrass [17, 21]: 20; Plant response rating, Barnyardgrass [17, 20]: 50; Plant response rating, Kochia (kochia (Bassia scoparia) [18]; 31 g ai/ha): 10; Plant response rating, Kochia (kochia (Bassia scoparia) [18]; 125 g ai/ha): 50
3 | Cc1ccc2ccccc2c1-c1c(OCOC(=O)C(C)(C)C)c(Cl)nn(C)c1=O [Compound 7] | 0 | 50 | 0 | 10 | 100 | 100 | 0 | 0 | 70 | 90 | 60 | 100 | 70 | 90 | 10 | 70 | 50 | 90 | 0 | 50 | Plant response rating, Corn (corn (Zea mays); [21]): 10; Plant response rating, Barnyardgrass [11, 22]: 90; Plant response rating, Kochia (kochia (Bassia scoparia) [12]; [19]): 30; Plant response rating, Kochia (kochia (Bassia scoparia) [12]; [20]): 70; Plant response rating, Ryegrass, Italian [13, 19]: 50; Plant response rating, Ryegrass, Italian [13, 20]: 70; Plant response rating, Pigweed, Redroot [14, 19]: 80; Plant response rating, Pigweed, Redroot [14, 20]: 90; Plant response rating, Ragweed ([15]; 31 g ai/ha): 50; Plant response rating, Ragweed ([15]; 125 g ai/ha): 90; Plant response rating, Blackgrass [16, 21]: 0; Plant response rating, Blackgrass [16, 20]: 30; Plant response rating, Barnyardgrass [17, 21]: 10; Plant response rating, Barnyardgrass [17, 20]: 80; Plant response rating, Kochia (kochia (Bassia scoparia) [18]; 31 g ai/ha): 10; Plant response rating, Kochia (kochia (Bassia scoparia) [18]; 125 g ai/ha): 70
4 | Cc1cc(Cl)c2ccc(F)cc2c1-c1c(OCOC(=O)C(C)(C)C)c(C)nn(C)c1=O [Compound 30] | 20 | 60 | 75 | 10 | 80 | 100 | 35 | 100 | 100 | 100 | 20 | 100 | 20 | 100 | 30 | 80 | 100 | 100 | 40 | 0 | Plant response rating, Corn (corn (Zea mays); [19]): 0; Plant response rating, Barnyardgrass [11, 22]: 80; Plant response rating, Kochia (kochia (Bassia scoparia) [12]; [19]): 10; Plant response rating, Kochia (kochia (Bassia scoparia) [12]; [20]): 30; Plant response rating, Ryegrass, Italian [13, 19]: 80; Plant response rating, Ryegrass, Italian [13, 20]: 100; Plant response rating, Pigweed, Redroot [14, 19]: 80; Plant response rating, Pigweed, Redroot [14, 20]: 90; Plant response rating, Ragweed ([15]; 31 g ai/ha): 80; Plant response rating, Ragweed ([15]; 125 g ai/ha): 90; Plant response rating, Blackgrass [16, 19]: 40; Plant response rating, Blackgrass [16, 20]: 80; Plant response rating, Barnyardgrass [17, 19]: 20; Plant response rating, Barnyardgrass [17, 20]: 50; Plant response rating, Kochia (kochia (Bassia scoparia) [18]; 31 g ai/ha): 20; Plant response rating, Kochia (kochia (Bassia scoparia) [18]; 125 g ai/ha): 20

Source: patent US12692238B2, “Substituted pyridazinone herbicides” (FMC CORPORATION, priority 2020, dated 2026)
